Assays:
Assay type in all cases: functional
[1] = tested on: Mycobacterium tuberculosis; test: Antimycobacterial activity against multi-drug resistant Mycobacterium tuberculosis 234/2005 after 21 days by microplate dilution method; conditions: 234/2005, 504 h
[2] = tested on: Mycobacterium tuberculosis; test: Antimycobacterial activity against multi-drug resistant Mycobacterium tuberculosis 8666/2010 after 14 days by microplate dilution method; conditions: 8666/2010, 336 h
[3] = tested on: Mycobacterium tuberculosis; test: Antimycobacterial activity against multi-drug resistant Mycobacterium tuberculosis Praha 4 after 21 days by microplate dilution method; conditions: Praha 4, 504 h
[4] = tested on: Mycobacterium tuberculosis; test: Antimycobacterial activity against multi-drug resistant Mycobacterium tuberculosis Praha 4 after 14 days by microplate dilution method; conditions: Praha 4, 336 h
[5] = tested on: Mycobacterium tuberculosis; test: Antimycobacterial activity against multi-drug resistant Mycobacterium tuberculosis Praha 1 after 21 days by microplate dilution method; conditions: Praha 1, 504 h
[6] = tested on: Mycobacterium tuberculosis; test: Antimycobacterial activity against multi-drug resistant Mycobacterium tuberculosis 8666/2010 after 21 days by microplate dilution method; conditions: 8666/2010, 504 h
[7] = tested on: Mycobacterium tuberculosis; test: Antimycobacterial activity against multi-drug resistant Mycobacterium tuberculosis Praha 1 after 14 days by microplate dilution method; conditions: Praha 1, 336 h
[8] = tested on: Mycobacterium tuberculosis; test: Antimycobacterial activity against multi-drug resistant Mycobacterium tuberculosis 7357/1998 after 14 days by microplate dilution method; conditions: 7357/1998, 336 h
[9] = tested on: Mycobacterium tuberculosis; test: Antimycobacterial activity against multi-drug resistant Mycobacterium tuberculosis Praha 131 after 21 days by microplate dilution method; conditions: Praha 131, 504 h
[10] = tested on: Mycobacterium tuberculosis; test: Antimycobacterial activity against multi-drug resistant Mycobacterium tuberculosis 9449/2007 after 21 days by microplate dilution method; conditions: 9449/2007, 504 h
[11] = tested on: Mycobacterium tuberculosis; test: Antimycobacterial activity against multi-drug resistant Mycobacterium tuberculosis 7357/1998 after 21 days by microplate dilution method; conditions: 7357/1998, 504 h
[12] = tested on: Mycobacterium tuberculosis; test: Antimycobacterial activity against multi-drug resistant Mycobacterium tuberculosis 9449/2007 after 14 days by microplate dilution method; conditions: 9449/2007, 336 h
[13] = tested on: Mycobacterium tuberculosis; test: Antimycobacterial activity against multi-drug resistant Mycobacterium tuberculosis 234/2005 after 14 days by microplate dilution method; conditions: 234/2005, 336 h
[14] = tested on: Mycobacterium tuberculosis; test: Antimycobacterial activity against multi-drug resistant Mycobacterium tuberculosis Praha 131 after 14 days by microplate dilution method; conditions: Praha 131, 336 h

Measured: MIC

CCCCNc1cncc(C(=O)NCc2ccccc2)n1
125 µM: [10]
32 µM: [4] | [14]
62.5 µM: all other assays above

CCCCNc1nccnc1C(=O)NCc1ccccc1
250 µM: [1] | [6] | [9] | [10] | [11]
125 µM: all other assays above

CCCCNc1cnc(C(=O)NCc2ccccc2)cn1
62.5 µM: [4] | [12] | [14]
250 µM: [1] | [5] | [6]
125 µM: all other assays above

NNC(=O)c1ccncc1 [ISONIAZID]
32 µM: [6] | [11]
16 µM: all other assays above

CCCCCCNc1nccnc1C(=O)NCc1ccccc1
> 1000 µM: [1] | [3] | [5] | [6] | [9] | [11]
1000 µM: all other assays above

CCCCCNc1nccnc1C(=O)NCc1ccccc1
1000 µM: [2] | [4] | [7] | [8] | [12] | [13] | [14]
> 1000 µM: all other assays above

CCCCCCCCNc1cncc(C(=O)NCc2ccccc2)n1
16 µM: all assays above

CCCCCCCNc1nccnc1C(=O)NCc1ccccc1
1000 µM: [2] | [7] | [8] | [11] | [13] | [14]
> 1000 µM: all other assays above

CCCCCNc1cnc(C(=O)NCc2ccccc2)cn1
32 µM: [1] | [3] | [5] | [6] | [10] | [11]
16 µM: all other assays above

CCCCCCCCNc1nccnc1C(=O)NCc1ccccc1
> 1000 µM: all assays above

CCCCCCNc1cncc(C(=O)NCc2ccccc2)n1
16 µM: [2] | [7] | [13] | [14]
32 µM: all other assays above

CCCCCCCNc1cncc(C(=O)NCc2ccccc2)n1
8 µM: [4] | [14]
16 µM: all other assays above

CCCCCNc1cncc(C(=O)NCc2ccccc2)n1
32 µM: [4] | [8] | [12] | [14]
62.5 µM: all other assays above

CCCCCCCNc1cnc(C(=O)NCc2ccccc2)cn1
2 µM: [14]
8 µM: [3] | [10] | [11]
4 µM: all other assays above

CCCCCCCCNc1cnc(C(=O)NCc2ccccc2)cn1
4 µM: [2] | [7] | [9] | [13] | [14]
8 µM: all other assays above

CCCCCCNc1cnc(C(=O)NCc2ccccc2)cn1
4 µM: [2] | [7] | [9] | [13] | [14]
8 µM: all other assays above

Source: ChEMBL document CHEMBL3745676, “Alkylamino derivatives of N-benzylpyrazine-2-carboxamide: synthesis and antimycobacterial evaluation” (Medchemcomm, 2015)
